Measurements reported in BigSolDB 2.1.

CS(=O)(=O)c1ccc(F)cc1
Settings	solubility (mole fraction)
in acetone, 290.53 K	0.226
in acetone, 298.3 K	0.282
in acetone, 304.2 K	0.331
in chloroform, 288.4 K	0.229
in chloroform, 293.25 K	0.262
in chloroform, 299.93 K	0.312
in chloroform, 305 K	0.352
in ethanol, 291.07 K	0.0162
in ethanol, 297.34 K	0.0302
in ethanol, 303.07 K	0.0471
in ethanol, 308.66 K	0.0744
in ethyl acetate, 293.28 K	0.189
in ethyl acetate, 299.67 K	0.23
in ethyl acetate, 305.75 K	0.278
in ethyl acetate, 313.05 K	0.35
in toluene, 290.84 K	0.0422
in toluene, 298.86 K	0.0744
in toluene, 304.15 K	0.105
in toluene, 306.87 K	0.125
